Read-outs that look alike come from different tables or passages of the source.
What was measured:
[1] = Antiradical activity, acellular DPPH model; settings: DPPH 30 minutes, absorbance 520 nm
Method: The antiradical activity of the derivatives derived from the syntheses described above was evaluated in an in vitro acellular model using DPPH.
1,1-Diphenyl 2-picryihydrazyl, on account of its paramagnetic structure, can accept an electron or a hydrogen radical to become a stable diamagnetic molecule. This free radical, which is purple coloured in ethanol, has a strong absorption band at 520 nm.
The addition of a compound that provides electrons results in a decolorization of the 1,1-diphenyl 2-picrylhydrazyl that is proportional to the number of electrons taken up by the radical, which may be monitored by measuring the absorbance at 520 nm.
DPPH is incubated for 30 minutes in the presence of the derivatives described above, tested at a concentration of 10^−5M, or alone for the control. At the end of the incubation, the antiradical activity of the above derivatives is evaluated by measuring the absorbance of the solution at 520 nm.
The antiradical activity of each test product is calculated according to the formula, as a percentage: 100−((OD520 in the presence of the test compound/OD520 in the absence of compound)×100)

Human tyrosinase [2] = molecular target: T1, Human tyrosinase (Homo sapiens, UniProt P14679); assay: Inhibition of human tyrosinase after 24 h application to normal human melanocytes in monolayer; format: cell-based; settings: for inhibition at 1000 µM: 10^−3 M
T1 construct: endogenous in cells; host or cells: normal human melanocytes (abdominal surgery; several donors of fair, brown and black phototypes)
T1 sequence (P14679 19-529): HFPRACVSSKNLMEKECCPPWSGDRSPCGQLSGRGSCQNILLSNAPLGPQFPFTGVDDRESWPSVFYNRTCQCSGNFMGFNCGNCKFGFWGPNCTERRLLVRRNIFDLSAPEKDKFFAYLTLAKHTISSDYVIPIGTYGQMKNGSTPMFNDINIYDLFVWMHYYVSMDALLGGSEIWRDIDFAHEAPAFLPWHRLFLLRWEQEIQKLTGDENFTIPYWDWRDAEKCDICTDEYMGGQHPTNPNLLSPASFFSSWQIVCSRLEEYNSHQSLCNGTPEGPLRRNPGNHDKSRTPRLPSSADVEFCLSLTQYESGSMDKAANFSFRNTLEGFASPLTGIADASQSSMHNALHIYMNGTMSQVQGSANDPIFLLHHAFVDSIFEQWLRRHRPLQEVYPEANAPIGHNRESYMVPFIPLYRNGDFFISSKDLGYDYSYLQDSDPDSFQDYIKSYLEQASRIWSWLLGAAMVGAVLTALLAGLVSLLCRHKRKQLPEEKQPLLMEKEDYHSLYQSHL
Method: Normal human melanocytes (obtained from abdominal surgery) are seeded in 24-well plates at a rate of 80 000 cells per well. They are cultured to confluence and the active agents are applied for 24 hours to the culture media. After 24 hours, the media are removed and the melanocytes are detached via mechanical action. An extraction is performed via a thermal shock and the supernatants are then recovered and incubated with MBTH (Sigma) and L-dopa (Sigma). The OD at 490 nm is measured after 30 minutes, and the tyrosinase inhibition is calculated by relating the OD at 490 nm to the protein content (measured in each culture well) of the test relative to the ratio: OD 490 nm/protein concentration of the negative control (untreated control).
The compounds derived from the examples mentioned above were tested on melanocytes derived from various donors but of fair phototype, according to the protocol described in Example 29. The donors tested are as follows: • donor S (donor tested in Example 12): • donor 1: • donor 2: • donor 3
The compound derived from Example 1 is tested on cultures of melanocytes obtained from 2 donors of brown phototype and from one donor of black phototype. The protocol applied is that described in Example 29. […]

Human tyrosinase [3] = molecular target: T1, Human tyrosinase; assay: In vitro test of inhibition of human tyrosinase from melanocyte extracts (L-dopa/MBTH, OD 490 nm); format: biochemical; settings: melanocyte extract
Method: Human tyrosinase, obtained from melanocyte extracts obtained from healthy donors, catalyses the formation of L-dopaquinone from L-dopa. Now, the L-dopaquinone may be quantified by visible spectrophotometry at 490 nm by means of a chromogen: 3-methyl-2-benzothiazolinone hydrazone (MBTH).
The melanocyte extract is obtained after lysis of cell membranes of the normal human melanocytes, performed via a thermal shock. The supernatant is recovered and then incubated with MBTH (Sigma) and L-dopa (Sigma). […]

normal human melanocytes = assay: Cytotoxicity on normal human melanocytes, PNPP assay; format: cell-based; settings: 24 hours, relative to untreated wells
Method: The cytotoxicity of the active agents is studied on normal human melanocytes in 24-well plates, via assay with PNPP (P-nitrophenyl phosphate), this substance being converted into p-nitrophenol via the intracellular acid phosphatases of viable cells. The absorbance of p-nitrophenol at 405 nm is directly proportional to the number of viable cells.
The active agents are tested at 2 different concentrations (10^−4 M and 10^−5 M) and added to the culture medium and incubated at 37° C. for 24 hours. The assay with PNPP is performed on the cell lawn and the results are expressed as a percentage of viability relative to the negative control (untreated wells).

rats = assay: in vivo; settings: both, rat, po
Method: (§1) The toxicology tests were performed on the compound obtained according to Example 1 incorporated at 10% into a 0.5% xanthan gel, by ocular evaluation on rabbits, by studying the absence of abnormal toxicity via single oral administration to rats, and by studying the sensitizing power on guinea pigs.
(§2) The preparations described were administered in a single portion orally at a dose of 2 g/kg of body weight, to 5 male rats and 5 female rats according to a protocol inspired by the OCDE Directive No. 401 of 24 February 1987 and adapted to cosmetic products.

in vivo = settings: both, rat, po
Method: as §1, §2

COc1cc(/C=C/C(=O)NCCc2ccc(O)c(O)c2)ccc1O [Example 1, N-trans-feruloyldopamine]
Antiradical activity, Mean 10^−5 M [1]: 60.01%
inhibition at 100 µM (Human tyrosinase [2]; 10^−4M, 24 hours, read-out: Inhibition of human tyrosinase after application to normal human melanocytes, percentage of inhibition, Mean 10^−4M): 62.3%
inhibition at 10 µM (Human tyrosinase [2]; 10^−5M, 24 hours, read-out: Inhibition of human tyrosinase after application to normal human melanocytes, percentage of inhibition, Mean 10^−5M): 29.4%
inhibition at 1000 µM (Human tyrosinase [2]; B103, Donor B, brown phototype, read-out: Inhibition of tyrosinase, Mean Donor B, 10^−3 M): 87.2%
inhibition at 100 µM (Human tyrosinase [2]; B104, Donor B, brown phototype, 10^−4 M, read-out: Inhibition of tyrosinase, Mean Donor B, 10^−4 M): 65.8%
inhibition at 100 µM (Human tyrosinase [2]; Donor 1, fair phototype, 10^−4 M, read-out: Inhibition of tyrosinase, Mean 10^−4 M, Donor 1): 63.9%
inhibition at 10 µM (Human tyrosinase [2]; Donor 1, fair phototype, 10^−5 M, read-out: Inhibition of tyrosinase, Mean 10^−5 M, Donor 1): 35.8%
inhibition at 100 µM (Human tyrosinase [2]; Donor 2, fair phototype, 10^−4 M, read-out: Inhibition of tyrosinase, Mean 10^−4 M, Donor 2): 59.9%
inhibition at 10 µM (Human tyrosinase [2]; Donor 2, fair phototype, 10^−5 M, read-out: Inhibition of tyrosinase, Mean 10^−5 M, Donor 2): 12.9%
inhibition at 100 µM (Human tyrosinase [2]; Donor 3, fair phototype, 10^−4 M, read-out: Inhibition of tyrosinase, Mean 10^−4 M, Donor 3): 50.2%
inhibition at 10 µM (Human tyrosinase [2]; Donor 3, fair phototype, 10^−5 M, read-out: Inhibition of tyrosinase, Mean 10^−5 M, Donor 3): 18.9%
inhibition at 1000 µM (Human tyrosinase [2]; Donor A, brown phototype, read-out: Inhibition of tyrosinase, Mean Donor A, 10^−3 M): 99.4%
inhibition at 100 µM (Human tyrosinase [2]; Donor A, brown phototype, 10^−4 M, read-out: Inhibition of tyrosinase, Mean Donor A, 10^−4 M): 59.2%
inhibition at 10 µM (Human tyrosinase [2]; Donor A, brown phototype, 10^−5 M, read-out: Inhibition of tyrosinase, Mean Donor A, 10^−5 M): 29.3%
inhibition at 10 µM (Human tyrosinase [2]; Donor B, brown phototype, 10^−5 M, read-out: Inhibition of tyrosinase, Mean Donor B, 10^−5 M): 20.8%
inhibition at 100 µM (Human tyrosinase [2]; Donor S, fair phototype, 10^−4 M, read-out: Inhibition of tyrosinase, Mean 10^−4 M, Donor S): 62.3%
inhibition at 10 µM (Human tyrosinase [2]; Donor S, fair phototype, 10^−5 M, read-out: Inhibition of tyrosinase, Mean 10^−5 M, Donor S): 29.4%
inhibition at 100 µM (Human tyrosinase [3]; 10^−4M, read-out: Inhibition of human tyrosinase, percentage of inhibition, Mean 10^−4M): 0%
inhibition at 10 µM (Human tyrosinase [3]; 10^−5M, read-out: Inhibition of human tyrosinase, percentage of inhibition, Mean 10^−5M): 0%
Percentages of viability, Mean 10^−4 M (normal human melanocytes; 10^−4 M): 94.49%
Percentages of viability, Mean 10^−5 M (normal human melanocytes; 10^−5 M): 119.83%
LD0 (rats): greater than 2000 mg/kg
LD50 (in vivo): > 2000 mg/kg
